This note sets out measurements from publication PMC9616531 (Plant Biotechnology Journal, 2022).

This experiment deals with UGT72B23. As to the kind of experiment: UDP-Glo glycosyltransferase assay. The class given is biochemical, Camellia sinensis. The following applies: read-out: apparent Km; UDP-glucose co-substrate, pH 7.5, 40 °C.

As usually defined, the Km is the substrate concentration at which the rate is half of its maximum. On to `O=C(O[C@@H]1Cc2c(O)cc(O)cc2O[C@@H]1c1ccc(O)c(O)c1)c1cc(O)c(O)c(O)c1` [epicatechin gallate], for which the Km was 31.2 µM.
Turning to `O=C(O[C@@H]1Cc2c(O)cc(O)cc2O[C@@H]1c1cc(O)c(O)c(O)c1)c1cc(O)c(O)c(O)c1` [epigallocatechin gallate], the Km turned out to be 27.9 µM.
